In patent US20220313733A1, “METHOD FOR PRODUCING RENAL INTERSTITIAL CELL” (Kyoto University, priority 2019, published 2022):

Columns and labels:
Type in all cases: cell-based, human
hNCCs = assay: Hypoxic response of posteriorly shifted NCCs (hNCCs): EPO secreted into the medium; settings: hNCCs on Day 18, 100 μM, 1 day after addition
Method: EPO-producing cells are known to perform the production and secretion of EPO in response to HIF signals in a hypoxic environment. The hypoxic response of the hNCCs on Day 18 prepared in Example 1-3 was confirmed using two types of compounds that activated HIF signals (FG-2216: Selleck Chemicals #18382 and FG-4592: Selleck Chemicals #S1007, 100 μM each). Results of quantifying the amount of EPO secreted into the medium on 1 day after addition of FG-2216 or FG-4592 are shown in FIG. 3. The secretion of EPO into the medium was increased in response to hypoxic stimulation.

RSCs [1] = assay: Hypoxia-responsive ability of RSCs to produce EPO (mRNA, immunostaining); settings: 100 μM
Method: The RSPs obtained in Example 2 were inoculated at 2×10^3 cells/well to a 6-well plate coated with fibronectin, and cultured for 15 days in STEMdiff APEL2 medium (STEMCELL Technologies Inc., ST-05275) to obtain RSCs (Days 55 to 70). The hypoxia-responsive ability to produce EPO was confirmed as to the obtained RSCs. EPO-producing cells are known to perform the production and secretion of EPO in response to HIF signals in a hypoxic environment. The RSCs were treated with a compound that activated HIF signals (FG-4592, Selleck Chemicals, #S1007, 100 μM).

[2] = system: kidney organoid (Mini-kidney); assay: EPO mRNA expression in kidney organoid (Mini-kidney) under hypoxic stimulation; settings: Mini-kidney IM+RSP (D25), 100 μM
Method: RNA was extracted from the kidney organoid on Day 25 from the start of coculture (Mini-kidney, IM+RSP (D25)) obtained in Example 4-3 and a kidney organoid containing no RSP (KiO (D25)), and libraries for transcriptome analysis were prepared using Ion AmpliSeq™ Transcriptome Human Gene Expression Kit (Thermo Fisher Scientific, Inc.: #A26326). The prepared libraries were subjected to sequencing analysis (Ion S5 XL sequencer, Thermo Fisher Scientific, Inc.) using Ion 54™ Chip Kit (Thermo Fisher Scientific, Inc., #A27765) to quantify the expression level of EPO mRNA. The significant expression of EPO mRNA was not seen in any of an iPS cell line, IM, and the kidney organoid containing no RSP (KiO (D25)). By contrast, the significant expression of EPO mRNA was confirmed in the Mini-kidney (IM+RSP (D25)). As a result of confirming the hypoxic response of the Mini-kidney in the same manner as in Example 1-4, the EPO expression level was increased by hypoxic stimulation (100 μM FG-4592) (IM+RSP (D25) +FG4592).

[3] = system: kidney organoid (Mini-kidney); assay: Renal stromal cell marker mRNA expression in Mini-kidney under hypoxic stimulation; settings: Mini-kidney IM+RSP (D25), 100 μM
Excerpt: The mRNA expression levels of renal stromal cell markers (desmin, vimentin, PDGFRβ and CD73) were quantified by the sequencing analysis of the libraries for transcriptomes prepared in Example 4-4. The expression of all the renal stromal cell markers was confirmed in the Mini-kidney (IM+RSP (D25)). As a result of confirming the hypoxic response of the Mini-kidney (IM+RSP (D25)) in the same manner as in Example 1-4, the expression levels of desmin and CD73 were decreased by hypoxic stimulation (100 μM FG-4592) (IM+RSP (D25)+FG4592).

RSCs [4] = assay: Evaluation of TGFβ1 response of RSCs (fibrosis, area of tdTomato-positive cells, αSMA)
Method: In vivo renal stromal cells are known to cause differentiation into αSMA-positive myofibroblasts and hypertrophy (so-called fibrosis) in response to TGFβ1 stimulation. RSCs were obtained by the methods described in Examples 1, 2 and 3-1 from the EPO-emGFP/GAPDH-tdTomato (GAPDH-tdT) dual knock-in human iPS cell line obtained in Example 4-2 mentioned later. In the method described in Example 1, the RA concentration was set to 3 μM. RSCs on day 4 of culture (D4) were treated with TGFβ1 (0.01 to 10 ng/ml) for 9 days (D13), and the degree of fibrosis was evaluated by determining the ratio of tdTomato-positive cells using image analysis software Image J (NIH). Specifically, a fluorescently taken image was converted to 8 bits for binarization, and the whole area was divided into “area of cells” and “other areas (areas containing no cell)”. The proportion was calculated according to the expression “Area of cells”/“Whole area”.

RSCs [5] = assay: Screening system for a compound that improves a sustained fibrotic state (area of tdTomato-positive cells); settings: 3, 10 or 30 μM added on D15, cultured to D24, after 10 ng/ml TGFβ1 D4 to D13
Method: In FIG. 15, RSCs on day 4 of culture (D4) were treated with TGFβ1 (10 ng/ml) for 9 days (D13) and then further cultured in a TGFβ1-free medium (D15) for 2 days. SB431542 (3, 10 or 30 μM) was added to the medium of the cells on D15, and the cells were further cultured for 9 days (D24). […] “Cont” depicts a negative control (without SB addition).
RSPs were inoculated at 3000 cells/well to a 384-well plate, and the induction of RSCs was started in STEMdiff APEL2 medium (STEMCELL Technologies Inc., ST-05275). On day 4 of culture (D4), fibrosis was induced by the addition of 10 ng/ml TGFβ1. During the culture period, the culture solution containing TGFβ1 was replaced with a fresh one every 3 days. On day 13 of culture (D13), TGFβ1 was removed from the medium, and culture was further continued for 2 days (D15). The TGF receptor inhibitor SB431542 (SB) was added as a test substance to the medium of the cells on D15, and the cells were further cultured for 9 days (D24). Then, the area of tdTomato-positive cells was determined.

RSCs [6] = assay: Fibrotic state of RSCs after removal of TGFβ1 from the medium
Method: In FIG. 13, RSCs on day 4 of culture (D4) were treated with TGFβ1 (1 ng/ml) for 9 days (D13 TGF) and then further cultured in a TGFβ1-containing medium (D25 TGF+) or a TGFβ1-free medium (D25 TGF−) for 12 days. […] “D25 Cont” depicts a negative control (without TGFβ1 treatment).
In FIG. 14, RSCs on day 4 of culture (D4) were treated with TGFβ1 (10 ng/ml) for 9 days (D13 TGF) and then further cultured in a TGFβ1-containing medium (D25 TGF+) or a TGFβ1-free medium (D25 TGF−) for 12 days. […] “D25 Cont” depicts a negative control (without TGFβ1 treatment).
By exploiting this property of fibrosis of RSCs, a screening system for a compound that improved a sustained fibrotic state was constructed.

fibronectin (FN1) = assay: Biomarker search: LC/MS analysis of culture supernatant of RSCs with induced fibrosis; settings: 10 ng/ml TGFβ1 for 9 days
Method: RSPs were inoculated at 2×10^6 cells/dish to a 10 cm dish, and the induction of RSCs was started in STEMdiff APEL2 medium (STEMCELL Technologies Inc., ST-05275). On day 7 of culture (D7), 10 ng/ml TGFβ1 was added thereto, and the cells were further cultured for 9 days to induce fibrosis.
The culture supernatant was recovered. After removal of albumin, IgG and IgA, a peptide fragment was obtained by acetone precipitation and trypsin digestion. The amino acid sequence of the peptide fragment was determined by LC/MS analysis.

RSPs = assay: Influence of bFGF, FGF9 and PDGF-BB on differentiation of RSPs into RSCs (number of cells, EPO ELISA)
Method: The RSPs obtained in Example 2 were inoculated at 2×10^3 cells/well to a 6-well plate coated with fibronectin, and cultured for 15 days in STEMdiff APEL2 medium (STEMCELL Technologies Inc., ST-05275) to obtain RSCs (Days 55 to 70).
The number of cells and the amount of EPO secreted into the medium which were obtained by adding 40 ng/ml bFGF, 200 ng/ml FGF9 (FUJIFILM Wako Pure Chemical Corp., #AF-100-23), and 10 ng/ml PDGF-BB (PeproTech, Inc., #100-14B) each alone or in combination to a medium were measured under the induction conditions of Example 3-1. EPO in the medium was measured by ELISA.

Molecule: O=C(O)CNC(=O)c1nc(Cl)c2ccccc2c1O [FG-2216]
- secretion of EPO into the medium (hNCCs): increased

Molecule: Cc1nc(C(=O)NCC(=O)O)c(O)c2ccc(Oc3ccccc3)cc12 [FG-4592]
- secretion of EPO into the medium (hNCCs): increased
- expression of EPO in response to hypoxic stimulation (RSCs [1]): found at the mRNA level and the protein level
- EPO expression level [2]: increased
- expression level of CD73 [3]: decreased
- expression level of desmin [3]: decreased

Molecule: NC(=O)c1ccc(-c2nc(-c3ccc4c(c3)OCO4)c(-c3ccccn3)[nH]2)cc1 [SB431542, 4-[4-(1,3-benzodioxol-5-yl)-5-(2-pyridinyl)-1H-imidazol-2-yl]-benzamide]
- cellular hypertrophy caused by TGFβ1 (RSCs [4]; cotreatment with TGF receptor inhibitor): suppressed
- fibrosis (area of tdTomato-positive cells) (RSCs [5]): marked suppression of fibrosis

Molecule: TGFβ1: isoform of transforming growth factor β, fibrosis-inducing substance
- cellular hypertrophy, concentration dependence (RSCs [4]; TGFβ1 0.01 to 10 ng/ml for 9 days): caused in a TGFβ1 concentration-dependent manner
- differentiation into αSMA-positive myofibroblasts and cellular hypertrophy (RSCs [4]; TGFβ1 0.01 to 10 ng/ml for 9 days (D4 to D13)): found
- fibrotic state after removing TGFβ1 from the medium (RSCs [6]; fibrosis induced by 1 ng/ml TGFβ1): restored to non-fibrotic RSCs
- fibrotic state after removal of TGFβ1 from the medium (RSCs [6]; fibrosis induced by 10 ng/ml TGFβ1): maintained the fibrotic state
- FN1 detected in culture supernatant of treated cells as compared with untreated cells (fibronectin (FN1)): about 10 times

Molecule: bFGF: basic fibroblast growth factor (FUJIFILM Wako Pure Chemical Corp.)
- proliferation of the cells (RSPs; 40 ng/ml bFGF added to STEMdiff APEL2 medium): promoted

B1: PDGF-BB: platelet derived growth factor B chain homodimer (PeproTech, Inc., #100-14B) (protein, UniProt P01127 82-190, looked up)
Platelet-derived growth …: SLGSLTIAEPAMIAECKTRTEVFEISRRLIDRTNANFLVWPPCVEVQRCSGCCNNRNVQCRPTQVQLRPVQVRKIEIVRKKPIFKKATVTLEDHLACKCETVAAARPVT
- amount of EPO secreted (RSPs; 10 ng/ml PDGF-BB added to STEMdiff APEL2 medium): increased
